# In US7723058B2, “Test system for the determination of in-vivo active hemostasis proteases in biological fluids and/or the usage thereof to determine the in-vivo activation of hemostasis” (priority 2001, dated 2010):
# Where a SMILES comes first, the peptide text is derived from it. [ ]: non-standard residue; d: D form. The star is where a group is joined. dChg = N[C@@H](C(=O)O)C1CCCCC1; pNA = O=[N+]([O-])c1ccc(N*)cc1
# Assays:
# Assay type in all cases: biochemical
# bovine thrombin = molecular target: T1, bovine thrombin (Bos taurus, UniProt P00735); test: Determination of the Km-value for thrombin in plasma; settings: thrombin in plasma after addition of 120 mlU/ml thrombin; 37° C.; read-out: substrate concentration at halfmaximal velocity (Km-value)
# T1 construct: activity of thrombin in plasma after addition of 120 mlU/ml thrombin (F IIa); purchased DadeBehring
# Experimental: 1. Normal EDTA-plasma with 250 mM arginine, pH 8.7, and 2. normal EDTA-plasma, supplemented with 120 mlU/ml bovine thrombin and 30 min thereafter with 250 mM arginine, pH 8.7, were incubated with 50 μl HD-CHG-Ala-Arg-pNA (0-6.67 mM final) in aqua dest, Delta A/3 h (37° C.) was measured and the value of 1. was subtracted from the value of 2. The resulting difference corresponds to the activity of thrombin in plasma after addition of 120 mlU/ml thrombin (F IIa). Result the maximal enzyme velocity is 800 mA/3 h the substrate concentration at halfmaximal velocity (Km-value) is 0.3 mM.
# normal plasma = test: Inhibition of the 1-step CPC by arginine; settings: plasmatic concentrations of arginine above 100 mM
# Experimental: The CPC-test was performed in the 1-step mode as follows: 100 μl normal plasma, containing increasing concentrations of arginine (0-300 mM), pH 8.7 were incubated with 50 μl 1.7 mM HD-CHG-Ala-Arg-pNA in aqua dest. and 50 μl Pathromtin SL®, The increase in absorbance/t (t=0-10 min RT) was determined. Result: at plasmatic concentrations of arginine above 100 mM the Pathromtin SL®-CPC is decreased to 0% (compared to a normal plasma without arginine=100%),
# Control Plasma N® (CPN) = test: Comparison of different CPC-approaches; settings: CPN; approaches B) and C)
# Experimental: For n=22 citrated plasmas of patients and the Control Plasma N® (CPN) the following CPC-approaches were performed, 2-step-approaches A, B, C and 1-step-approaches D, E, F. • A) 50 μl Plasma+25 μl Pathromtin SL® (SiO2) • B) 50 μl Plasma+25 μl Pathromtin® (kaolin, in H2O twofold diluted) • C) 50 μl Plasma+25 μl Neothromtin® (ellagic acid)
# 3 min RT time of activation; +25 μl 1.7 mM HD-CHG-Ala-Arg-pNA, 750 mM arginine, 6.4 g/l EDTA, pH 8.7 • D) 50 μl Plasma+25 μl 1.7 mM CH3SO2-D-CHG-Gly-Arg-pNA • E) 50 μl Plasma+13 μl 1.5 M arginine, pH 8.7, +50 μl 1.7 mM CH3SO2-D-CHG-Gly-Arg-pNA • F) 50 μl Plasma+25 μl 1.7 mM HD-CHG-Ala-Arg-pNA in H2O+25 μl Pathromtin SL®
# Determination of delta A at 405 nm (RT). The respective changes in extinction were correlated with each other. Result: Pathromtin SL®-2-step-CPC correlated with Pathromtin SL®-1-step-CPC with r=0.798 (delta A/13 min (RT) for CPN in 2-step-CPC=354 mA; delta A/2 min (RT) for CPN-547 mA, i.e. in the 1-step-CPC a […] higher Thrombin-Like Activity is generated compared with the 2-step-CPC; the corresponding values for approaches B) and C) are approx. 30% or 20% lower, respectively. […] Thus, even in arginine-stabilized plasma the amidolytic activity against CH3SO2-D-CHG-Gly-Arg-pNA can reliably be determined, what is valid for chromogenic substrates with a CH3SO2-group.
# normal plasma (citrated) = test: Optimization of the test concentration of contact phase activator in the CPC
# Experimental: To optimize the contact phase activator in the CPC 100 μl • a) Neothromtin® (0.6 g/l ellagic acid (3 ml vial Dade Behring in 1.5 ml H2O) • b) Pathromtin® (5 g/l Kaolin, Dade Behring) • c) Pathromtin SL® (SiO2, Dade Behring) in 1:1, 1:2, 1:4, 1:8, 1:16, 1:32, 1:64, 1:128 dilution with H2O or for control 100 μl H2O were incubated with 100 μl 1.5 mmol/l HD-CHG-Ala-Arg-pNA in PBS and with 100 μl normal plasma (citrated) for 4 min (RT). The increase In extinction (405 nm)/4 min was determined.
# active trypsin = test: Detection of active trypsin in plasma, aprotinin titration, pancreatitis plasma; settings: 50 min 37° C.
# Experimental: (§1) 25 μl plasma of a pancreatitis-patient (citrated), 25 μl CPN, 25 μl 36 pkat/ml bovine Factor Xa in PBS, 0.1% Triton X 100®, were incubated with 25 μl assay buffer, containing 600 mM NaHCO3, ph 8.7 with and without 600 mM arginine, 25 μl 25 mM chloramines T®, 25 μl 3 mM N-α-Z-D-Arg-Gly-Arg-pNA 2HCl (S-2765®; Chromogenix, Mölndal, Sweden) and 25 μl Aprotinin (0, 2, 20, 200, 2000, 20000 KIU/ml) for 50 min at 37° C. and the increase in extinction at 405 nm during this incubation time was determined with a microtiterplate-photometer.
# bovine Factor Xa = molecular target: T2, bovine Factor Xa (Bos taurus, UniProt P00743); test: Aprotinin on pure factor Xa; settings: 36 pkat/ml bovine Factor Xa; substrate S-2765
# T2 construct: 25 μl 36 pkat/ml bovine Factor Xa in PBS
# T2 sequence (P00743 234-492 limits assumed): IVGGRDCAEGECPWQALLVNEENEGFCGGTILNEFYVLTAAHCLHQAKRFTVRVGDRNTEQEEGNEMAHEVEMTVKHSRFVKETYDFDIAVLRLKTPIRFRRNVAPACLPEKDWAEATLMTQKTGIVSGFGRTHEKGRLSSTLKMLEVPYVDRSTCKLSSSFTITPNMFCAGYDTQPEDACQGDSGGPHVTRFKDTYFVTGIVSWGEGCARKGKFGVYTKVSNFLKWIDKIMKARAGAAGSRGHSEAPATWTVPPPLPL
# T2 sequence (P00743 41-180 partner limits assumed): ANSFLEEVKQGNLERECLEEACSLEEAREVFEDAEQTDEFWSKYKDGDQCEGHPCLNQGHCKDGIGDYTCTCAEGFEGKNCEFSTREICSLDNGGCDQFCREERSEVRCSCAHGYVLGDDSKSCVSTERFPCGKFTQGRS
# Experimental: as §1, with “[…],” for “25 μl plasma of a pancreatitis-patient (citrated), 25 μl CPN, 25 μl 36 pkat/ml bovine Factor Xa in PBS,”
# CPN = test: Aprotinin titration in CPN; settings: 50 min 37° C.
# Experimental: as §1
# [1] = Standardization of GACA with a pure enzyme-reagent / FEIBA; settings: pure enzyme in 500 mM arginine, 2% Hämaccel, 0.1% Triton X 100
# Experimental: The GACA was performed with 100 μl pure bovine thrombin (0-18 mlU/ml; DadeBehring), pure bovine Factor Xa (0-150 pkat/ml) or a Factor-Eight-Inhibitor-Bypassing-Activity-concentrate (0-2.6 units/ml; FEIBA®, Immuno, Wien) in 500 mM arginine, 2% Hämaccel®, 0.1% Triton X 100® (substrate here=HD-CHG-Ala-Arg-pNA. Additional samples were Control Plasma N® (CPN, DadeBehring) or CPN supplemented with FEIBA (0-2.6 units/ml). The incubation was varied from 0 to 4 h. The respective change in extinction was measured. Result: There appears a linear relationship between the thrombin- or factor Xa-concentration used and the resulting change in extinction, and also between incubation time and change in extinction. 6 mlU/ml IIa or 45 pkat/ml Xa result in a change in extinction, that corresponds to that of normal plasma (100% GACA). Thus, the GACA can be calibrated and standardized with pure thrombin- or factor Xa-reagent. CPN with 2.6 units/ml FEIBA has a GACA-value of approx. 200%, i.e. this addition of FEIBA to CPN increases the GACA-value from 100% to […].
# [2] = system: normal EDTA-Plasma supplemented with bovine thrombin (pathoplasma); test: GACA, optimization of the concentration of substrate, pathoplasma
# Experimental: Before and after the incubation the extinction at 405 nm was determined.
# The ratio of the extinctions of pathoplasma and normal plasma approximates the value of 1 at final substrate concentrations >1.5 mM. The higher this value the more specific is the assays for pathologic activation of hemostasis, here imitated by addition of 120 mlU/ml bovine thrombin. This ratio reaches maximal values at final substrate concentrations ≦1 mM. However, the maximal change in extinction decreases at low substrate concentrations, especially at substrate concentrations below 0.3 mM, i.e. substrate exhaustion occurs. Therefore the final substrate concentration in the GACA should be between 0.3 mM and 1.0 mM, preferentially between 0.5 mM and 0.8 mM, particularly at 0.56 mM. At this final substrate concentration the assay is very specific for activation of hemostasis, and consequently the determination of CPC (approach B) can be neglected where appropriate. Thus, the GACA-value corresponds to the uGACA-value at a final substrate concentration of up to 0.8 mM, i.e. GACA=approach A (without correction is by approach B). After addition of thrombin to EDTA-plasma 90% of thrombin is inactivated, in the GACA only 10% of the added enzyme activity can be detected.
# [3] = 25 μl 2 KIU/ml, absence of arginine
# [4] = 25 μl 2 KIU/ml, presence of arginine
# [5] = 25 μl 20 KIU/ml, absence of arginine
# [6] = 25 μl 20 KIU/ml, presence of arginine
# [7] = 25 μl 200 KIU/ml, absence of arginine
# [8] = 25 μl 200 KIU/ml, presence of arginine
# [9] = 25 μl 2000 KIU/ml, absence of arginine
# [10] = 25 μl 2000 KIU/ml, presence of arginine
# [11] = 25 μl 20000 KIU/ml, absence of arginine
# [12] = 25 μl 20000 KIU/ml, presence of arginine
molecule,measurement,setting,value
"C[C@H](NC(=O)[C@H](N)C1CCCCC1)C(=O)N[C@@H](CCCNC(=N)N)C(=O)Nc1ccc([N+](=O)[O-])cc1 [HD-CHG-Ala-Arg-pNA, HD-CHG-Ala-Arg-pNA.2AcOH] (H-[dChg]-Ala-Arg-pNA)",Km,bovine thrombin,300 µM
N=C(N)NCCC[C@H](N)C(=O)O [arginine],Pathromtin SL®-CPC compared to a normal plasma without arginine=100%,normal plasma,0%
O=c1oc2c(O)c(O)cc3c(=O)oc4c(O)c(O)cc1c4c23 [ellagic acid],2-step-CPC value lower than with Pathromtin SL®,Control Plasma N® (CPN),~20%
same,test concentration at optimal activity of protease,"normal plasma (citrated); CPC, 4 min RT",0.05 g/L
same,delta A,"normal plasma (citrated); at optimal test concentration of contact phase activator, 405 nm, RT",1443 mA/4 min
aprotinin,increase of extinction,active trypsin; [3],733 mA
same,increase of extinction,active trypsin; [4],778 mA
same,increase of extinction,active trypsin; [5],715 mA
same,increase of extinction,active trypsin; [6],709 mA
same,increase of extinction,active trypsin; [7],531 mA
same,increase of extinction,active trypsin; [8],685 mA
same,increase of extinction,active trypsin; [9],294 mA
same,increase of extinction,active trypsin; [10],497 mA
same,increase of extinction,active trypsin; [11],103 mA
same,increase of extinction,active trypsin; [12],259 mA
same,inhibition of pure factor Xa,bovine Factor Xa,not inhibited
same,increase in extinction in the CPN,CPN; [3],134 mA
same,increase in extinction in the CPN,CPN; [4],133 mA
same,increase in extinction in the CPN,CPN; [5],135 mA
same,increase in extinction in the CPN,CPN; [6],126 mA
same,increase in extinction in the CPN,CPN; [7],108 mA
same,increase in extinction in the CPN,CPN; [8],126 mA
same,increase in extinction in the CPN,CPN; [9],118 mA
same,increase in extinction in the CPN,CPN; [10],125 mA
same,increase in extinction in the CPN,CPN; [11],124 mA
same,increase in extinction in the CPN,CPN; [12],123 mA
thrombin: pure bovine thrombin (DadeBehring),concentration giving a change in extinction that corresponds to normal plasma (100% GACA),[1],6 mlU/ml
same,thrombin inactivated after addition to EDTA-plasma,[2],90%
same,added enzyme activity that can be detected in the GACA,[2]; after addition of thrombin to EDTA-plasma,10%
